Reference: patent US20260286363A1, “COMPOSITIONS AND METHODS FOR DIAGNOSING, TREATING, AND PREVENTING LYSOSOMAL STORAGE DISEASES” (Wylder Nation Foundation, priority 2022, published 2026)
Where two headings read alike, the source gives them in different places.

Legend:
cultured wt neurons [1] = experiment: Cell viability MTT assay in cultured wt neurons; assay type: cell-based, mouse; settings: for neuronal death upon SM16:0 addition in the presence of acid and neutral sphingomyelinase inhibitors (MTT): wt neurons, SM16:0 plus desipramine or GW4869
Method: Cell viability was evaluated using the MTT (methylthiazolyldiphenyltetrazoliumbromide, Sigma) assay. Briefly, 3×10^4 neurons were plated in 96-well plates coated with poly-L-lysine (0.1 mg/ml). At DIV14 1 mM MTT was added to the wells and incubated for 4 h. Then, the supernatant was discarded, and […] DMSO was added to the wells. The absorbance was measured at 570 nm using a microplate reader (FLUOstar Optima, BMG Labtech). Cells treated with DMSO were used as a control.

cultured wt neurons [2] = experiment: pSM16:0 co-localization with subcellular markers (Mander's coefficient); assay type: cell-based, mouse
Method: Cultured neurons at 14 DIV were fixed in 4% PFA 0.12M sucrose and incubated overnight with primary antibodies and subsequently for 1 h with Alexa 488- or Alexa 555-conjugated secondary antibodies. Images were taken using a confocal microscope LSM710 (Zeiss). The Mander's coefficient for pSM 16:0 co-localization with Thy1; PSD95; TOM20; EEA1; LAMP1; GM130 was determined by using the JACOP plugin. Mouse brains were dissected, fixed in 4% PFA 0.12M sucrose, and cryoprotected for 24 h in 30% sucrose phosphate buffer saline. The tissue was then frozen in Tissue-Tek optimal cutting temperature compound (Sakura Finetek, Torrance, CA, USA), and 40-μm sagittal sections were obtained with a cryostat (CM 1950 Ag Protect freezing: Leica, Solms, Germany). The sections were incubated overnight at 4° C. with the primary antibodies and then with the corresponding Alexa-conjugated secondary antibodies. Finally, the sections were incubated for 10 min with DAPI (Merck), washed, and mounted with ProLong Gold Antifade (Thermo Fisher). Images were obtained on a confocal LSM710 microscope (Zeiss) and quantified using the Fiji software.
Cultured neurons were treated with 40 μM propargyl SM (pSM 16:0) (Merck; #860711P) for 48 hours at DIV12. After immunofluorescence protocol, explained above, click reaction was performed for the attachment of fluorescent reporter (Sulfo-Cy3-Azide; Jena Biosciences; #CLK-AZ119-1) to pSM 16:0.
The surprising effects of SM16:0 on lysosomes compared to other SM species supported a hypothesis that this lipid targets these organelles. To explore this possibility, we took advantage of the existence of the analogue propargyl SM16:0 (pSM16:0), which is linked to an alkyne group and can be traced by click chemistry and fluorescence microscopy. We added pSM16:0 for 48 hours to cultured wt neurons and performed double immunofluorescence with markers of different cellular compartments.

[3] = tested on: wt primary cultured neurons; settings: not told
Method: Lysotracker Red DND99 (Thermo Fisher Scientific) was added to wt primary cultured neurons at 1 μM and incubated for 20 min at 37° C. Cells were then fixed in 4% PFA and mounted using Prolong Gold Antifade (Invitrogen). Images were taken on a confocal LSM710 microscope (Zeiss).
To investigate the effect of the different SM species in these organelles, several lysosomal-related parameters were measured. To analyze lysosomal permeabilization, the lysotracker red dye, which fluoresces in acidic environments was utilized.

[4] = tested on: Cortical neurons from wt mice; experiment: LC/MS quantification of SM in cultured wt neurons incubated with SM species; assay type: cell-based, mouse; settings: for increase of total SM levels: wt cortical neurons cultured 48 hr with 40 μM; for relative abundance of the added SM species, of the total SM: wt cortical neurons, 48 hr, 40 μM
Method: Sample analysis was performed in an Acquity ultraperformance liquid chromatography (UPLC) system (Waters, USA) connected to a time-of-flight (TOF; LCT Premier XE) detector controlled with Waters/Micromass MassLynx software.
A study was done to determine the impact of the different increments of individual SM species in ASMko mice and cells on their specific accumulation in neurons. Cortical neurons from wt mice were cultured for 48 hr with 40 μM of either total SM from bovine brain (SMb, containing similar SM species proportions than total SM from mouse brain); or individual SM16:0; SM18:0 or SM24:1. […] LC/MS quantification assessed the effect of each treatment on the relative abundance of the added SM species. Incubation with SM16:0 and SM18:0 drastically raised the relative abundance of each of these species to 88% and 82% of the total (FIG. 2B). Incubation with SM24:1 increased the prevalence of this species to 30%, while addition of SMb reduced the relative abundance of SM18:0 and SM16:0 by 4% and 15%, respectively, while increased that of SM24:1 by 8% (FIG. 2B).

cultured wt neurons [5] = experiment: LAMP1 surface staining in non-permeabilized neurons (lysosomal exocytosis); assay type: cell-based, mouse
Method: ASMko and wt cultured neurons at 14DIV were washed with PBS and fixed with 2% PFA in PBS and 0.12 M sucrose for 8 min. Immunofluorescence was performed using a conventional protocol in the absence of detergent to avoid cell permeabilization.

wt neurons = settings: cultured neurons
Method: To assess reactive oxygen species (ROS), cultured neurons were incubated for 20 min with dihydrorhodamine 123 (10 μM, DHR: Molecular Probes, Carlsbad, CA, USA). The fluorescence product of DHR, rhodamine-123, was detected at excitation and emission wavelengths of 500 and 536 nm, respectively. Images of cultured neurons were captured on a confocal microscope (LSM710; Zeiss).
Since high levels of SM also can induce oxidative stress, reactive oxygen species (ROS) was evaluated by dihydrorhodamine 123 (DHR) staining in wt neurons incubated with the different SM species.

ASM = target: T1, ASM (Mus musculus, UniProt Q04519); experiment: Enzymatic assay of SMb or SM16:0 metabolized by ASM activity; assay type: biochemical; settings: fluorescence per nmol metabolized, slope analysis
T1 sequence (Q04519 45-627): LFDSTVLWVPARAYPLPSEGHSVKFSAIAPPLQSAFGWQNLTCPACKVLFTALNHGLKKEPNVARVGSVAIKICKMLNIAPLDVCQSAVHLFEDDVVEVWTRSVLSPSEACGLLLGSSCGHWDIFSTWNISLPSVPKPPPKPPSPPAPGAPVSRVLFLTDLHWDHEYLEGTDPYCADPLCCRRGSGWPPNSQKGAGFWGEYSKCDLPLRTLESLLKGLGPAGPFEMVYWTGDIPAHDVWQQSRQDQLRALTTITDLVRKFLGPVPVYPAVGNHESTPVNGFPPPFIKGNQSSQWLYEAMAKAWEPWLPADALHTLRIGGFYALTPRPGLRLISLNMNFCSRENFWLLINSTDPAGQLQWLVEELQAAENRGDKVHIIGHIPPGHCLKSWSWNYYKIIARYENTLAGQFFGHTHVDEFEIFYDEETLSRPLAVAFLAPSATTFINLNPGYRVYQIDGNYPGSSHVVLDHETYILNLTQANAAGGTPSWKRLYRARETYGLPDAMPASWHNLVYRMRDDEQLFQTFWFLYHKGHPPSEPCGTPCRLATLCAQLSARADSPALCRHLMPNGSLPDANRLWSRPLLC
Method: SM levels were measured according to protocols modified from (Hojati and Jiang, 2006). Lipid extracts were dried in the presence of Thesit, and SM was converted into peroxide by incubation with sphingomyelinase (Smase C from Merck; #S9396 or ASM from Sino Biological; #50749-M08B), alkaline phosphatase, and choline oxidase. Peroxide was measured fluorimetrically in the presence of peroxidase and homovanillic acid (Van Veldhoven et al., 1997).

ASM knock-out mice = experiment: Lipidomic analysis of brain, liver and plasma of ASM knock-out mice after i.p. rhASM; assay type: in vivo, mouse
Method: Mouse brain and liver samples were homogenized in water (1 g wet tissue/4 mL). SM was extracted from 50 μL of homogenate or 50 μL of plasma in the presence of SM (17:0) as internal standard using Bligh-Dyer lipid extraction (Bligh and Dyer, 1959). Sample analysis was performed in a Shimadzu 20AD HPLC system coupled to a 6500QTRAP+ mass spectrometer (AB Sciex, Framingham, MA) operated in positive multiple reaction monitoring mode. Data processing was conducted with Analyst 1.6.3 (AB Sciex). Data were reported as the peak area ratios of the analytes in sample to the internal standard.
To identify potential biomarkers of brain pathology in ASMD subjects a study was conducted in ASM knock-out mice. In brief, ASM knock-out mice received an i.p. injection of rhASM at 1 mg/kg every other day for 14 days. Results were compared to previous lipidomic analysis done on WT/ASMko mice at 2, 4, and 6 months.
Lipidomic analysis were completed on the brain, liver, and plasma of the treated mice. Analyzed lipids comprised: SM, LSM, SM OH, and m/z 805 (a phosphocholine compound). Total SM levels post i.p. rhASM injection are shown in FIG. 13A and below at Table 3.

[6] = 48 hours, wt neurons, Mander's coefficient
[7] = Liver, i.p. 1 mg/kg every other day for 14 days
[8] = Plasma, i.p. 1 mg/kg every other day for 14 days

Molecule: Cl.Cl.O=C(/C=C/c1ccc(/C=C/C(=O)Nc2ccc(C3=NCCN3)cc2)cc1)Nc1ccc(C2=NCCN2)cc1 [GW4869]
- neuronal death upon SM16:0 addition in the presence of acid and neutral sphingomyelinase inhibitors (MTT) (cultured wt neurons [1]): not prevented

Molecule: CCCCCCCCCCCCC/C=C/[C@@H](O)[C@@H](N)COP(=O)([O-])OCC[N+](C)(C)C [LysoSM, lyso-sphingomyelin]
- deleterious effects on cultured neurons (MTT viability) (cultured wt neurons [1]; addition to cultured neurons): did not find deleterious effects

Molecule: CCCCCCCCCCCCC/C=C/[C@@H](O)[C@H](COP(=O)([O-])OCC[N+](C)(C)C)NC(=O)CCCCCCCCCCCCCCC [SM16:0, sphingomyelin 16:0]
- accumulation in lysosomes (pSM16:0 colocalization with Lamp1) (cultured wt neurons [2]; wt neurons treated with ASM inhibitor desipramine): accumulates in lysosomes
- reduction of neuronal survival / cell death (MTT) (cultured wt neurons [1]; mouse, cultured neurons): 50%
- neuronal death upon SM16:0 addition in the presence of acid and neutral sphingomyelinase inhibitors (MTT) (cultured wt neurons [1]): induces cell death
- lysosomal permeabilization (change of Lysotracker staining from dotty to diffuse cytosolic pattern) [3]: indicative of lysosomal permeabilization
- increase of total SM levels [4]: 6.6 fold
- relative abundance of the added SM species, of the total SM [4]: 88%
- lysosomal exocytosis (surface staining of LAMP1) (cultured wt neurons [5]): induced lysosomal exocytosis
- elevation in ROS levels (DHR staining) (wt neurons): 1.6 fold
- substrate preference of ASM (SM16:0 vs SMb) (ASM): ASM has a preference to degrade SM16:0

Molecule: CCCCCCCCCCCCC/C=C/[C@@H](O)[C@H](COP(=O)([O-])OCC[N+](C)(C)C)NC(=O)CCCCCCCCCCCCCCCCC [SM18:0, sphingomyelin 18:0]
- reduction of neuronal survival / cell death (MTT) (cultured wt neurons [1]; mouse, cultured neurons): 25%
- increase of total SM levels [4]: 3.5 fold
- relative abundance of the added SM species, of the total SM [4]: 82%

Molecule: propargyl SM16:0 [pSM16:0]
- co-localization with early endosome marker EEA1 (cultured wt neurons [2]; [6]): low degree of co-localization
- co-localization with mitochondrial marker TOM20 (cultured wt neurons [2]; [6]): low degree of co-localization
- co-localization with plasma membrane marker Thy-1 (cultured wt neurons [2]; [6]): low degree of co-localization
- co-localization with synaptic marker PSD95 (cultured wt neurons [2]; [6]): low degree of co-localization
- colocalization with Golgi apparatus marker GM130 (cultured wt neurons [2]; [6]): high colocalization
- colocalization with endolysosomal marker LAMP1 (cultured wt neurons [2]; [6]): high colocalization

Molecule: sphingomyelin 24:1 [SM24:1]
- reduction of neuronal survival / cell death (MTT) (cultured wt neurons [1]): no deleterious effects
- increase of total SM levels [4]: not significant
- relative abundance of the added SM species, of the total SM [4]: 30%

B1: rhASM: recombinant human acid sphingomyelinase (protein, UniProt P17405 47-631, looked up)
Sphingomyelin …: LALSDSRVLWAPAEAHPLSPQGHPARLHRIVPRLRDVFGWGNLTCPICKGLFTAINLGLKKEPNVARVGSVAIKLCNLLKIAPPAVCQSIVHLFEDDMVEVWRRSVLSPSEACGLLLGSTCGHWDIFSSWNISLPTVPKPPPKPPSPPAPGAPVSRILFLTDLHWDHDYLEGTDPDCADPLCCRRGSGLPPASRPGAGYWGEYSKCDLPLRTLESLLSGLGPAGPFDMVYWTGDIPAHDVWHQTRQDQLRALTTVTALVRKFLGPVPVYPAVGNHESTPVNSFPPPFIEGNHSSRWLYEAMAKAWEPWLPAEALRTLRIGGFYALSPYPGLRLISLNMNFCSRENFWLLINSTDPAGQLQWLVGELQAAEDRGDKVHIIGHIPPGHCLKSWSWNYYRIVARYENTLAAQFFGHTHVDEFEVFYDEETLSRPLAVAFLAPSATTYIGLNPGYRVYQIDGNYSGSSHVVLDHETYILNLTQANIPGAIPHWQLLYRARETYGLPNTLPTAWHNLVYRMRGDMQLFQTFWFLYHKGHPPSEPCGTPCRLATLCAQLSARADSPALCRHLMPDGSLPEAQSLWPRPLFC
- SM 16:0 level decrease after i.p. rhASM injection (ASM knock-out mice; Brain): does not change
- Total LSM levels, % Decrease with rhASM injection (ASM knock-out mice; Brain, i.p. 1 mg/kg every other day for 14 days): does not change
- SM 16:0 level decrease after i.p. rhASM injection (ASM knock-out mice; Liver): 15%
- Total SM levels, % Decrease with rhASM injection (ASM knock-out mice; [7]): 22%
- Total m/z 805 levels, % Decrease with rhASM injection (ASM knock-out mice; [7]): 70%
- SM 16:0 level decrease after i.p. rhASM injection (ASM knock-out mice; Plasma): 35%
- Total LSM levels, % Decrease with rhASM injection (ASM knock-out mice; [8]): 70%
- Total SM levels, % Decrease with rhASM injection (ASM knock-out mice; [8]): 31%
- SM OH levels after i.p. rhASM injection (ASM knock-out mice; brain, liver, plasma): reduction in all samples tested
- m/z 805 levels after rhASM injections, across tissues (ASM knock-out mice; brain, liver, plasma): decreases only in the liver
